Source: patent US20090312411A1, “PREVENTING OR REDUCING RISK OF MISCARRIAGES” (New York Society for the Raptured and Crippled Maintaining …, priority 2008, published 2009)

Columns and labels:
[1] = tested on: murine model of antiphospholipid syndrome (APS); assay: Fetal resorption in murine model of APS (aPL-treated pregnant mice); format: in vivo; conditions: uterus from a mouse treated with aPL+simvastatin, day 15, FIG. 3
Experimental: Protocol. […] The stock solution was diluted to the appropriate concentration in sterile PBS.
Protocol. Pregnant C57BL/6 mice were treated with IgG (10 mg i.p.) from a healthy non-autoimmune individual (NH-IgG), or different patients with APS (aPL-IgG) on days 8 and 12 of pregnancy. Mice were sacrificed on day 15 of pregnancy, uteri were dissected, fetuses were weighed, and frequency of fetal resorption calculated (number of resorptions/number of fetuses+number of resorptions).
Protocol. Pregnant mice were treated with pravastatin (0.2 μg/g bw=5 μg/mouse, i.p 18 hours prior to aPL or NHIgG injections on days 8 and 12). Pravastatin (Sigma Chemical, St Louis, Mo.) was dissolved in EtOH at a concentration of 10 mg/mL and diluted with NaCl 0.9% in a ratio of 1:1000 to yield a final concentration of 10 μg pravastatin per 1 mL carrier. The NaCl 0.9%-based carrier solution for the placebo group was prepared accordingly to include EtOH only (i.e., without pravastatin) at a concentration of 1:1000.

TF [2] = assay: TF on peripheral blood neutrophils, two-color FACS; format: in vivo, mouse; conditions: flow cytometry
Experimental: (§1) Protocol. To study the presence of TF on peripheral blood neutrophils, two-color FACS analysis was performed. For this purpose heparinized whole mouse blood was stained with FITC-labeled anti-mouse Ly-6G (Gr-1) for FL1 (BD Biosciences Pharmingen, CA) to identify neutrophils and biotinylated rat anti-mTF antibody 1H1 and streptavidin-PerCP (BD Biosciences Pharmingen, CA) as the FL3 fluorochrome. Red cells were lyzed with ACK buffer. Preparations were then incubated with SA-PerCP and analyzed by FACS using a FACscan (BD Biosciences, CA).

neutrophils [3] = assay: Respiratory burst activity (ROS) in neutrophils, DHR flow cytometry; format: in vivo, mouse
Experimental: Respiratory burst activity in neutrophils. Intracellular reactive oxygen (ROS) production was assessed with dihydrorhodamine 123 (DHR, Sigma Chemical, St Louis, Mo.) by flow cytometry. This primarily non-fluorescent dye becomes fluorescent upon oxidation to rhodamine by ROS produced during the respiratory burst. DHR (10 μmol/L) was added to heparanized whole blood, and this mixture was incubated at 37° C. for 45 min. Red cells were lysed as described above and reactive-oxygen production was analyzed by […] in FL1.

neutrophils [4] = assay: Phagocytosis assay, latex beads, flow cytometry; format: in vivo, mouse
Experimental: Phagocytosis assay. Heparanized whole blood was incubated (1 h, 37° C., 5% CO2) with 1 μm of fluorescent yellow-green latex beads (Sigma-Aldrich) (ratio phagocyte/target 1:25) that had been preopsonized with normal mouse serum for 1 h. Internalization of beads was determined by flow cytometry using a FACSCalibur (BD Biosciences) flow cytometer.

PAR-2 = PAR-2 on peripheral blood neutrophils, two-color FACS; format: in vivo, mouse
Experimental: as §1, with “Protocol. […] expression on mouse neutrophils.” for “Protocol.”, “PAR-2” for “TF”, “anti-PAR-2” for “rat anti-mTF”, “(Santa Cruz Biotechnology, Inc, Santa Cruz, Calif.)” for “1H1”

SM9-1 trophoblast cells [5] = assay: SM9-1 trophoblast cell proliferation, light microscopy; format: cell-based, mouse; conditions: SM9-1 cells incubated with sFlt-1 or monocyte supernatants, 72 hours; VEGF 500 pg/ml; pravastatin 5 μg/ml 3 hours prior
Experimental: (§2) Protocol. SM9-1 trophoblast cells, derived from a gestational day 9 Swiss-Webster mouse placenta (SM9-1) (Bowen et al., Biol Reprod 60:428-434.), were incubated with the supernatants from monocytes incubated with C5a containing high levels of sFlt-1 (Girardi et al., 2006, J Exp Med 203:2165-2175). Some SM9-1 cells were incubated in the presence of increasing amounts of mouse sFlt-1 (R&D Systems) (1000, 2000, 4000 and 8000 pg/ml). After 72 hours, cell proliferation was evaluated by light microscopy. Some SM9-1 cells were incubated with pravastatin (5 μg/ml) for 3 hours prior to incubation with sFlt-1. Mouse VEGF (500 pg/ml) (R&D systems) was added to some SM9-1 incubated with sFlt-1 or monocytes supernatants. Immunohistochemical identification of TF with 1H1 and superoxide production by DHE was performed on the SM9-1 cells after 72 hours of culture.
(§3) Protocol. SM9-1 trophoblast cells were prepared as described in Example 21. Isolated SM9-1 cells were incubated in the presence of increasing amounts of mouse sFlt-1 (R&D Systems) (1000, 2000, 4000 and 8000 pg/ml). After 72 hours, cell proliferation was evaluated by light microscopy. SM9-1 cells were also incubated with pravastatin (5 μg/ml) for 3 hours prior to incubation with sFlt-1. Immunohistochemical identification of TF with 1H1 and superoxide production by DHE was performed on the SM9-1 cells after 72 hours of culture as described above.

SM9-1 trophoblast cells [6] = assay: SM9-1 trophoblast superoxide production by DHE; format: cell-based, mouse; conditions: SM9-1 cells incubated with sFlt-1 or monocyte supernatants, 72 hours; VEGF 500 pg/ml; pravastatin 5 μg/ml 3 hours prior
Experimental: as §2, §3

TF [7] = assay: SM9-1 trophoblast TF immunohistochemistry with 1H1; format: cell-based, mouse; conditions: SM9-1 cells incubated with sFlt-1 or monocyte supernatants, 72 hours; VEGF 500 pg/ml; pravastatin 5 μg/ml 3 hours prior
Experimental: as §2, §3

monocytes = assay: sFlt-1 release by monocytes in vitro (ELISA); format: cell-based, mouse; conditions: 10 nM C5a for 4 h; pravastatin 5 μg/ml for 3 hours prior to C5a
Experimental: Protocol. Mice with a selective deletion of the TF gene in myeloid cells (TF^floxed/floxed/LysM-Cre mice) (Redecha et al., supra), were used for isolation of monocytes to study sVEGFR-1 production in vitro. Blockade of TF was carried out as in Example 17 by i.p. injections of anti-mTF antibody 1H1.
Protocol. Splenocytes were prepared from non pregnant CBA/J female mice and incubated for 4 h in culture medium supplemented with 10% inactivated fetal bovine serum (FBS). Non adherent cells were removed and adherent cells (>95% peroxidase-positive) were incubated in culture medium with the addition of 10 nM mouse recombinant C5a. A group of adherent monocytes was treated for 3 hours with pravastatin (5 μg/ml) prior to incubation with C5a. After 4 h of incubation with C5a, culture supernatants were collected and analyzed for sVEGFR-1 by ELISA (R&D Systems).

Molecule: CCC(C)(C)C(=O)O[C@H]1C[C@@H](C)C=C2C=C[C@H](C)[C@H](CC[C@@H]3C[C@@H](O)CC(=O)O3)[C@H]21 [Simvastatin, simvastatin]
- viable fetuses in uterus [1]: 7
- TF (TF [2]; aPL + Simvastatin): 10 ± 5.7 % of positive cells
- TF (TF [2]; treatment given alone): 6.6 ± 2.2 % of positive cells
- ROS (neutrophils [3]; aPL + Simvastatin): 10.4 ± 5.4 % of positive cells
- ROS (neutrophils [3]; treatment given alone): 10.4 ± 4.5 % of positive cells
- Phagocytosis (neutrophils [4]; aPL + Simvastatin): 16.2 ± 2.9 % of positive cells
- Phagocytosis (neutrophils [4]; treatment given alone): 18.7 ± 1.0 % of positive cells
- PAR-2 (number of PAR-2 positive cells) (PAR-2; aPL + simvastatin): 7.4 ± 3.9
- PAR-2 (number of PAR-2 positive cells) (PAR-2; treatment given alone): 6.9 ± 2.3

Molecule: VEGF
- cell proliferation / cell growth (SM9-1 trophoblast cells [5]): restored cell proliferation
- superoxide production / oxidative damage (DHE) (SM9-1 trophoblast cells [6]): prevented oxidative damage
- TF staining / expression (TF [7]): prevented TF expression

B1: C5a: mouse recombinant C5a, complement component used to stimulate monocytes (protein, UniProt P06684 679-755, looked up)
C5a anaphylatoxin: NLHLLRQKIEEQAAKYKHSVPKKCCYDGARVNFYETCEERVARVTIGPLCIRAFNECCTIANKIRKESPHKPVQLGR
modifications: C5a anaphylatoxin
notes: mouse recombinant C5a, complement component used to stimulate monocytes
- sFlt-1 released by monocytes (monocytes): 6749 ± 1927 pg/mL

B2: sFlt-1: soluble form of the VEGF-1 receptor, antiangiogenic molecule that sequesters VEGF (R&D Systems) (protein)
chain: YGSGSKLKVPELSLKGTQHVMQAGQTLFLKCRGEAAHSWSLPTTVSQEDKRLSITPPSACGRDNRQFCSTLTLDTAQANHTGLYTCRYLPTSTSKKKKAESSIYIFVSDAGSPFIEMHTDIPKLVHMTEGRQLIIPCRVTSPNVTVTLKKFPFDTLTPDGQRITWDSRRGFIIANATYKEIGLLNCEATVNGHLYQTNYLTHRQTNTILDVQIRPPSPVRLLHGQTLVLNCTATTELNTRVQMSWNYPGKATKRASIRQRIDRSHSHNNVFHSVLKINNVESRDKGLYTCRVKSGSSFQSFNTSVHVYEKGFISVKHRKQPVQETTAGRRSYRLSMKVKAFPSPEIVWLKDGSPATLKSARYLVHGYSLIIKDVTTEDAGDYTILLGIKQSRLFKNLTATLIVNVKPQIYEKSVSSLPSPPLYPLGSRQVLTCTVYGIPRPTITWLWHPCHHNHSKERYDFCTENEESFILDPSSNLGNRIESISQRMTVIEGTNKTVSTLVVADSQTPGIYSCRAFNKIGTVERNIKFYVTDVPNGFHVSLEKMPAEGEDLKLSCVVNKFLYRDITWILLRTVNNRTMHHSISKQKMATTQDYSITLNLVIKNVSLEDSGTYACRARNIYTGEDILRKTEVLVRDSEAPHLLQNLSDYEVSISGSTTLDCQARGVPAPQITWFKNNHKIQQEPGIILGPGNSTLFIERVTEEDEGVYRCRATNQKGAVESAAYLTVQGTSDKSNLE
- cell proliferation / cell growth (SM9-1 trophoblast cells [5]): diminished cell proliferation
- superoxide production / oxidative damage (DHE) (SM9-1 trophoblast cells [6]): increased superoxide production
- TF staining / expression (TF [7]): Increased TF staining
